The target in this assay is PKA (catalytic subunit) (Bos taurus, UniProt P00517). Put plainly: biochemical.

The structures appear in SMILES notation.

As to `O=C(N[C@@H]1CNCCC[C@H]1OC(=O)c1cc(O)c(C(=O)c2c(O)cccc2C(=O)O)c(O)c1)c1ccc(O)cc1` [balanol], the IC50 came out at 110 nM.

One may read the IC50 as the point on the concentration scale where inhibition reaches its midpoint. A low value points to inhibition by little substance.

For the origin of these results see paper PMC3073382 (Journal of medicinal chemistry, 2010).
